In the test the target is T1, ALK5 kinase (Homo sapiens, UniProt P36897).
T1 construct: GST; purchased Thermo Fisher Scientific Solutions
T1 sequence (P36897 34-503): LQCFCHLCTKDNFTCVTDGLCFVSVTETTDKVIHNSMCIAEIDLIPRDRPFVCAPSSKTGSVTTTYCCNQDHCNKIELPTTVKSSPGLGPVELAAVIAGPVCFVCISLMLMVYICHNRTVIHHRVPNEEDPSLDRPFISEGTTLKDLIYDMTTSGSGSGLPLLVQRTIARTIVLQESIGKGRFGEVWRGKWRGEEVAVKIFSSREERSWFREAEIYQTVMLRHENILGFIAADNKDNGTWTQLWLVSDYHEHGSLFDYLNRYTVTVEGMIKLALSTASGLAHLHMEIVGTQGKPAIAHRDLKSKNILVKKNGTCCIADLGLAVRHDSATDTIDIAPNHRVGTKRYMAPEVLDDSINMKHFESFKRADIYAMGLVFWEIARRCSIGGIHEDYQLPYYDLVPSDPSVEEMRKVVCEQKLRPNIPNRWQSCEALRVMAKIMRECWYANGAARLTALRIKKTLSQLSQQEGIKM
Put plainly: Activity inhibition test on ALK5 enzyme (LanthaScreen Eu binding kinase assay). Conditions: kinase tracer 178, 60 minutes at room temperature. In short, it runs like this:
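TR-FRET tracer-displacement format with final 5 nM ALK5, 2 nM Eu-GST antibody and 10 nM kinase tracer 178. Compound dilution series ran 1 μM–0.0001 μM, incubated 60 min at room temperature with stirring. Fluorescence was read ([…]), and IC50 came from percent inhibition versus control.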
A word on the IC50: it is the concentration that gives 50% inhibition. Higher therefore signals weaker potency. `COc1ccccc1NC(=O)c1cc(-c2ccc3nccnc3c2)n(-c2cccc(C)n2)n1` [Example 166, N-(2-methoxyphenyl)-1-(6-methylpyridin-2-yl)-5-(quinoxalin-6-yl)-1H-pyrazole-3-carboxyamide]: the IC50 was about 100 nM.

`COCCOc1ccc(NC(=O)c2cc(-c3ccc4nccnc4c3)n(-c3cccc(C)n3)n2)cc1` [Example 167, N-(4-(2-methoxyethoxy)phenyl)-1-(6-methylpyridin-2-yl)-5-(quinoxalin-6-yl)-1H-pyrazole-3-carboxyamide]: the IC50 was at most 100 nM. In turn, `Cc1cccc(-n2nc(C(=O)Nc3ccc4c(c3)OCO4)cc2-c2ccc3nccnc3c2)n1` [Example 168, N-(benzo[d][1,3]dioxol-5-yl)-1-(6-methylpyridin-2-yl)-5-(quinoxalin-6-yl)-1H-pyrazole-3-carboxyamide] yielded an IC50 of at most 100 nM. For `Cc1cccc(-n2nc(C(=O)Nc3ccc4c(c3)OCCO4)cc2-c2ccc3nccnc3c2)n1` [Example 169, N-(2,3-dihydrobenzo[b][1,4]dioxin-6-yl)-1-(6-methylpyridin-2-yl)-5-(quinoxalin-6-yl)-1H-pyrazole-3-carboxyamide] the value was 10 to 100 nM; for `Cc1cccc(-n2nc(C(=O)Nc3ccc(N(C)C)cc3)cc2-c2ccc3nccnc3c2)n1` [Example 170, N-(4-(dimethylamino)phenyl)-1-(6-methylpyridin-2-yl)-5-(quinoxalin-6-yl)-1H-pyrazole-3-carboxyamide], under 100 nM; for `Cc1cccc(-n2nc(C(=O)Nc3ccc(N4CCOCC4)cc3)cc2-c2ccc3nccnc3c2)n1` [Example 171, 1-(6-methylpyridin-2-yl)-N-(4-morpholinophenyl)-5-(quinoxalin-6-yl)-1H-pyrazole-3-carboxyamide], 10 to 100 nM. For `Cc1cccc(-n2nc(C(=O)Nc3ccc(N4CCN(C)CC4)cc3)cc2-c2ccc3nccnc3c2)n1` [Example 172, N-(4-(4-methylpiperazin-1-yl)phenyl)-1-(6-methylpyridin-2-yl)-5-(quinoxalin-6-yl)-1H-pyrazole-3-carboxyamide] the value was 10 to 100 nM; for `CC(=O)N1CCN(c2ccc(NC(=O)c3cc(-c4ccc5nccnc5c4)n(-c4cccc(C)n4)n3)cc2)CC1` [Example 173, N-(4-(4-acetylpiperazin-1-yl)phenyl)-1-(6-methylpyridin-2-yl)-5-(quinoxalin-6-yl)-1H-pyrazole-3-carboxyamide], 10 to 100 nM; for `Cc1cccc(-n2nc(C(=O)Nc3ccc(C#N)cc3)cc2-c2ccc3nccnc3c2)n1` [Example 174, N-(4-cyanophenyl)-1-(6-methylpyridin-2-yl)-5-(quinoxalin-6-yl)-1H-pyrazole-3-carboxyamide], under 100 nM. In turn, `Cc1cccc(-n2nc(C(=O)Nc3cccc(C#N)c3)cc2-c2ccc3nccnc3c2)n1` [Example 175, N-(3-cyanophenyl)-1-(6-methylpyridin-2-yl)-5-(quinoxalin-6-yl)-1H-pyrazole-3-carboxyamide] showed an IC50 of under 100 nM. As for `Cc1cccc(-n2nc(C(=O)Nc3ccc(CN4CCOCC4)cc3)cc2-c2ccc3nccnc3c2)n1` [Example 177, 1-(6-methylpyridin-2-yl)-N-(4-(morpholinomethyl)phenyl)-5-(quinoxalin-6-yl)-1H-pyrazole-3-carboxyamide], the IC50 is about 100 nM. For `CC(=O)c1ccc(NC(=O)c2cc(-c3ccc4nccnc4c3)n(-c3cccc(C)n3)n2)cc1` [Example 178, N-(4-acetylphenyl)-1-(6-methylpyridin-2-yl)-5-(quinoxalin-6-yl)-1H-pyrazole-3-carboxyamide] the value was 10 to 100 nM. For `CC(=O)c1cccc(NC(=O)c2cc(-c3ccc4nccnc4c3)n(-c3cccc(C)n3)n2)c1` [Example 179, N-(3-acetylphenyl)-1-(6-methylpyridin-2-yl)-5-(quinoxalin-6-yl)-1H-pyrazole-3-carboxyamide] the value was under 100 nM. For `Cc1cccc(-n2nc(C(=O)Nc3ccc(C(F)(F)F)cc3)cc2-c2ccc3nccnc3c2)n1` [Example 180, 1-(6-methylpyridin-2-yl)-5-(quinoxalin-6-yl)-N-(4-(trifluoromethyl)phenyl)-1H-pyrazole-3-carboxyamide] the value was 100 to 1000 nM. As for `Cc1cccc(-n2nc(C(=O)Nc3cccc(C(F)(F)F)c3)cc2-c2ccc3nccnc3c2)n1` [Example 181, 1-(6-methylpyridin-2-yl)-5-(quinoxalin-6-yl)-N-(3-(trifluoromethyl)phenyl)-1H-pyrazole-3-carboxyamide], the IC50 is about 100 nM. For `CNC(=O)c1ccc(NC(=O)c2cc(-c3ccc4nccnc4c3)n(-c3cccc(C)n3)n2)cc1` [Example 182, N-(4-(methylcarbamoyl)phenyl)-1-(6-methylpyridin-2-yl)-5-(quinoxalin-6-yl)-1H-pyrazole-3-carboxyamide] the value was under 100 nM; for `Cc1cccc(-n2nc(C(=O)Nc3ccc(F)cc3)cc2-c2ccc3nccnc3c2)n1` [Example 183, N-(4-fluorophenyl)-1-(6-methylpyridin-2-yl)-5-(quinoxalin-6-yl)-1H-pyrazole-3-carboxyamide], 10 to 100 nM. For `Cc1cccc(-n2nc(C(=O)Nc3cccc(F)c3)cc2-c2ccc3nccnc3c2)n1` [Example 184, N-(3-fluorophenyl)-1-(6-methylpyridin-2-yl)-5-(quinoxalin-6-yl)-1H-pyrazole-3-carboxyamide] the value was 10 to 100 nM; for `Cc1cccc(-n2nc(C(=O)Nc3ccccc3F)cc2-c2ccc3nccnc3c2)n1` [Example 185, N-(2-fluorophenyl)-1-(6-methylpyridin-2-yl)-5-(quinoxalin-6-yl)-1H-pyrazole-3-carboxyamide], under 100 nM. In turn, `Cc1cccc(-n2nc(C(=O)Nc3ccc(F)c(F)c3)cc2-c2ccc3nccnc3c2)n1` [Example 186, N-(3,4-difluorophenyl)-1-(6-methylpyridin-2-yl)-5-(quinoxalin-6-yl)-1H-pyrazole-3-carboxyamide] registered an IC50 of 10 to 100 nM. For `Cc1cccc(-n2nc(C(=O)Nc3ccc(F)cc3F)cc2-c2ccc3nccnc3c2)n1` [Example 187, N-(2,4-difluorophenyl)-1-(6-methylpyridin-2-yl)-5-(quinoxalin-6-yl)-1H-pyrazole-3-carboxyamide] the value was 10 to 100 nM. The molecule `Cc1cccc(-n2nc(C(=O)Nc3ccc(Cl)cc3)cc2-c2ccc3nccnc3c2)n1` [Example 189, N-(4-chlorophenyl)-1-(6-methylpyridin-2-yl)-5-(quinoxalin-6-yl)-1H-pyrazole-3-carboxyamide] displayed an IC50 of 10 to 100 nM. For `Cc1cccc(-n2nc(C(=O)Nc3ccccc3Cl)cc2-c2ccc3nccnc3c2)n1` [Example 190, N-(2-chlorophenyl)-1-(6-methylpyridin-2-yl)-5-(quinoxalin-6-yl)-1H-pyrazole-3-carboxyamide] the value was 100 to 1000 nM; for `Cc1cccc(-n2nc(C(=O)Nc3ccc(Br)cc3)cc2-c2ccc3nccnc3c2)n1` [Example 191, N-(4-bromophenyl)-1-(6-methylpyridin-2-yl)-5-(quinoxalin-6-yl)-1H-pyrazole-3-carboxyamide], 10 to 100 nM; for `COc1ccc(NC(=O)c2cc(-c3ccc4nccnc4c3)n(-c3cccc(C)n3)n2)cn1` [Example 192, N-(6-methoxypyridin-3-yl)-1-(6-methylpyridin-2-yl)-5-(quinoxalin-6-yl)-1H-pyrazole-3-carboxyamide], 10 to 100 nM.
